Data published in patent US6682892B2, “Method for treating herpes viruses” (priority 2000, dated 2004).
Read-outs that look alike come from different tables or passages of the source.

Legend:
Format in all cases: cell-based
HSV-1 Patton = assay: Plaque reduction assay, HSV-1 Patton; settings: Table 1, plaque reduction, Vero cells
Protocol: (§1) Antiviral activity of compounds against herpesviruses such as HSV-1, HSV-2, or HCMV can be measured using plaque reduction assays. 0.1 ml of media containing approximately 50 PFU of virus is added to each well of a 24-well cell culture dish containing a confluent monolayer of cells (Vero cells for HSV-1 and HSV-2, HFF cells for HCMV). Compounds are dissolved in 100% DMSO and diluted in 100% DMSO as 200× stocks of the desired final drug concentration. Typically 5-6 two-fold dilutions are prepared for each compound. Dilutions of compounds are then added to media containing 0.8% CMC resulting in a final 1× drug concentration. After the virus-infected cells have incubated for 1 h at 37° C., the virus innoculum is removed and 1 ml of media containing 0.8% CMC and the various concentrations of compound is added to each well of the dish. The dish is incubated at 37° C. for approximately 2-3 days (HSV-1 and HSV-2) or 6-9 days (HCMV) to allow sufficient growth of virus to form plaques in the cell monolayer. Plaques can be observed and counted microscopically or by staining the cells with 0.1% crystal violet in 20% ethanol. […] Antiviral activity of a compound is expressed as the concentration of compound predicted to reduce the number of plaques in a well by 50% (IC50). The IC50 values are calculated by plotting the per cent inhibition vs. concentration of compound using EXCEL software for linear regression.
(§2) A panel of viruses consisting of four strains of HSV-1 (KOS, F, DJL, Patton) and three strains of HSV-2 (MS, 35D, 186) are tested in a plaque reduction assay against four different 4-oxo-DHQ compounds (#1, 2, 4, 5 as shown in FIG. 1), and one 4-oxo-DHTP compound (#3 as shown in FIG. 1) and against Acyclovir. The six drugs inhibited replication of the seven virus strains with IC50 values ranging from 2-10 μM (Table 1). In order to select for 4-oxo-DHQ resistant mutants, HSV-1 strains KOS, F, and DJL along with HSV-2 strains 186 and MS are serially passaged in the presence of 20 uM compound 1. Following the seventh passage, 4-oxo-DHQ resistant virus from each strain are plaque purified three times and high-titer stocks are made.

HSV-2 MS = assay: Plaque reduction assay, HSV-2 MS
Protocol: as §1, §2

HSV-2 186 = assay: Plaque reduction assay, HSV-2 186; settings: Table 1, plaque reduction, Vero cells
Protocol: as §1, §2

HSV-1 DJL = assay: Plaque reduction assay, HSV-1 DJL; settings: Table 1, plaque reduction, Vero cells
Protocol: as §1, §2

[1] = system: HCMV AD169-M1 (V823A, V824L); assay: Plaque reduction assay, 4-oxo-DHQ resistant HCMV AD169-M1; settings: Table 5, mutant selected for 4-oxo-DHQ resistance; read-out: Plaque Reduction Assay - IC50 (μM) HCMV AD169-M1
Protocol: as §1
A plasmid containing the wild-type HCMV polymerase gene is modified to contain the V823A or V823A and V824L mutations using a site-directed mutagenesis Kit (Stratagene Corp.) and following the manufactures's protocol. HFF cells are plated into T25 tissue culture flasks to achieve 80% confluency at the time of the transfection. Wild type HCMV AD 169 DNA and plasmid DNA containing the mutant HCMV polymerase gene are mixed at a ratio of 1:2 (2 ug of viral DNA to 4 ug of plasmid DNA). DNA's are transfected using superfect transfection reagent according to methods recommended by the manufacturer (Quiagen Inc.). Cells are harvested five days posttransfection, freeze-thawed to release virus and half of the sample is used to infect HFF cell monolayers. Cells are overlayed with media containing 20 uM 4-oxo-DHQ compound 2 (see FIG. 1). Serial passage is repeated seven times in the presence of 20 uM compound 2 and virus isolates are then plaque purified three times prior to preparation of viral stock.
In order to isolate an HCMV resistant mutant marker rescue experiments are done. Plasmids containing the mutant polymerase genes are transfected into HFF cells along with wild type HCMV AD169 DNA. The resulting virus is then serially passaged in the presence of 20 uM compound 1 (see FIG. 1). A 4-oxo-DHQ resistant virus is isolated from marker rescue studies done with the HCMV polymerase gene containing mutations that result in the V823A, V824L amino acid changes, but not with the gene containing V823A change alone.

HSV-1 KOS-M1 (V823A) = assay: Plaque reduction assay, 4-oxo-DHQ resistant HSV-1 KOS-M1; settings: Table 5, mutant selected for 4-oxo-DHQ resistance; read-out: Plaque Reduction Assay - IC50 (μM) HSV-1 KOS-M1
Protocol: as §1
(§3) Vero cells are plated out at a density of 3.5×10^5 cells per well in a six well tissue culture plate. Cells are infected with HSV-1 KOS at a multiplicity of infection (moi) of 0.1 pfu/cell and 1 h post infection the cells are overlayed with 3 ml media containing 20 uM of a 4-oxo-DHQ. Cultures are incubated for 20 h at 37° C., freeze/thawed to release cell-associated virus, and 0.1 ml of culture is used to infect a new monolayer of Vero cells (one passage). Serial passage is repeated seven times in the presence of 20 uM drug. Virus isolates are then plaque purified three times prior to preparation of stocks. 4-oxo-DHQ resistant HSV-1 and HSV-2 may also be selected by the marker transfer method described below using wild-type HSV DNA and the corresponding mutant HSV polymerase gene.
as §2

HSV-1 KOS = assay: Plaque reduction assay, HSV-1 KOS
Protocol: as §1, §2

HSV-2 MS-M1 (V826A) = assay: Plaque reduction assay, 4-oxo-DHQ resistant HSV-2 MS-M1; settings: Table 5, mutant selected for 4-oxo-DHQ resistance; read-out: Plaque Reduction Assay - IC50 (μM) HSV-2 MS-M1
Protocol: as §1, §3, §2

HCMV AD169 = assay: Plaque reduction assay, HCMV AD169; settings: Table 5, wild type strain; read-out: Plaque Reduction Assay - IC50 (μM) HCMV AD169
Protocol: as §1

HSV-1 F = assay: Plaque reduction assay, HSV-1 F; settings: Table 1, plaque reduction, Vero cells
Protocol: as §1, §2

HSV-2 35D = assay: Plaque reduction assay, HSV-2 35D; settings: Table 1, plaque reduction, Vero cells
Protocol: as §1, §2

With `Cn1cc(C(=O)NCc2ccc(Cl)cc2)c(=O)c2cc(CN3CCOCC3)sc21` [Compound 3] the IC50 (HSV-1 Patton) was 7.7 µM, the IC50 (HSV-2 MS; Table 1, plaque reduction, Vero cells, read-out: IC50 (uM), HSV-2 MS) was 2.8 µM and the IC50 (HSV-2 MS; Table 5, wild type strain, read-out: Plaque Reduction Assay - IC50 (μM) HSV-2 MS) was 0.8 µM. It also gave an IC50 (HSV-2 186) of 3.2 µM, an IC50 (HSV-1 DJL) of 1.8 µM and an IC50 [1] of 6.2 µM. The IC50 (HSV-1 KOS-M1 (V823A)) was over 50 µM, the IC50 (HSV-1 KOS; Table 1, plaque reduction, Vero cells, read-out: IC50 (uM), HSV-1 KOS) was 3.2 µM and the IC50 (HSV-1 KOS; Table 5, wild type strain, read-out: Plaque Reduction Assay - IC50 (μM) HSV-1 KOS) was 4 µM. It also gave an IC50 (HSV-2 MS-M1 (V826A)) of over 50 µM, an IC50 (HCMV AD169) of 1.5 µM and an IC50 (HSV-1 F) of 2.2 µM. For the same compound, the IC50 (HSV-2 35D) was 5 µM.
